{"source": "patent US20190209506A1", "about": "“METHODS OF REDUCING OR PREVENTING OXIDATION OF LDL OR LIPID MEMBRANES IN A SUBJECT IN NEED THEREOF” (Amarin Pharmaceuticals Ireland Limited, priority 2018, published 2019)", "key": {"[1]": {"experiment": "Membrane cholesterol domain structural integrity, x-ray diffraction (Example 9)", "details": "C/P 1.5:1", "description": "Multilamellar vesicles (MLVs) were prepared as binary mixtures that include palmitoyloleoylphosphatidylcholine (POPC) (1.0 mg total phospholipid per sample) and cholesterol at an elevated cholesterol-to-phospholipid (C/P) mole ratio of 1.5:1. […] Samples were shell-dried under nitrogen gas and placed under vacuum for 3 hours to remove residual solvent at room temperature. After desiccation, each sample was resuspended in saline buffer (0.5 mM HEPES, 154 mM NaCl, pH 7.3) to yield a final phospholipid concentration of 2.5 mg/mL. Lipid suspensions were then vortexed for 3 minutes at ambient temperature to form MLVs.\nBriefly, a 100 μL aliquot of each MLV preparation (containing 250 μg MLV) was transferred to a Lucite® sedimentation cell fitted with an aluminum foil substrate designed to collect MLVs into a single membrane pellet upon centrifugation. Samples were then loaded into a Sorvall AH-629 swinging bucket rotor (DuPont Corp., Wilmington, Del.) and centrifuged at 35,000 g, 5° C., for 90 minutes.\nAfter centrifugal orientation, sample supernatants were aspirated and aluminum foil substrates, each supporting a single membrane pellet, were removed from the sedimentation cells. Sample pellets were dried for 5-10 minutes at ambient conditions, mounted onto curved glass supports, and placed in hermetically-sealed, brass or glass containers (for immediate analysis or temporary storage, respectively). All x-ray diffraction experiments were conducted at 20° C., 74% relative humidity. The latter was established by exposing membrane samples to saturated solutions of […] (K2C4H4O6.½H2O) for at least 1 hour prior to experimental analysis.\nOriented membrane samples were aligned at grazing incidence with respect to a collimated, mono-chromatic CuKα x-ray beam (Kα1 and Kα2 unresolved; λ=1.54 Å) produced by a Rigaku Rotaflex RU-200, high-brilliance microfocus generator (Rigaku-MSC, The Woodlands, Tex.) as previously described (Mason et al., Biophys. J., vol. 55(4), pages 769-778 (1989)). The samples were initially subjected to x-ray diffraction analysis at least 12 hours after formation of the membrane pellets and retested for up to several days. Analytical x-rays were generated by electron bombardment of a rotating copper anode and are filtered through a thin nickel foil to provide monochromatic radiation (λ=1.54 Å). Collimation of the x-ray beam was achieved using a single Franks mirror. Diffraction data were collected on a one-dimensional, position-sensitive electron detector (Hecus X-ray Systems, Graz, Austria) at a sample-to-detector distance of 150 mm from the sample site.\nThe d-space for any given membrane multi bilayer is a measurement of the unit cell periodicity of the membrane lipid bilayer (e.g., the distance from the center of one lipid bilayer to the next including surface hydration), and is calculated from Bragg's Law, hλ=2d sin θ, where h is the diffraction order, λ is the wavelength of the x-ray radiation (1.54 Å), d is the membrane lipid bilayer unit cell periodicity, and θ is the Bragg angle equal to one-half the angle between the incident beam and scattered beam.\nThe presence of cholesterol domains in a given membrane sample results in the production of distinct Bragg (diffraction) peaks having singular periodicity values of 34 and 17 Å (typically referred to as first- and second-order cholesterol domain peaks). Under the specific temperature and relative humidity conditions established for these experiments, the second-order, 17 Å cholesterol domain peak was well-delineated from other, neighboring cholesterol and phospholipid diffraction peaks and was thus used to quantitate relative cholesterol domain peak intensity. Routines written in Origin 8.6 (OriginLab Corporation, Northampton, Mass.) were used to determine total peak area (associated with all diffraction peaks in a given pattern) against which the second-order cholesterol domain peak was normalized."}, "[2]": {"system": "human sdLDL", "experiment": "Copper-induced sdLDL oxidation (Example 12)", "format": "biochemical", "details": "10.0 μM; copper-induced oxidation 1 hour", "description": "All samples, with the exception of non-oxidized sdLDL controls, were subjected to copper-induced oxidation for 1 hour. Human umbilical vein endothelial cells (HUVECs) were incubated with the various sdLDL samples, stimulated with calcium, and monitored for nitric oxide (NO) and peroxynitrite (ONOO^−) release using nanosensor technology."}, "[3]": {"experiment": "LOOH formation in membrane vesicles, fatty acid comparison (Example 16)", "format": "biochemical", "details": "5 μM", "description": "Iodometric approaches were used to measure in vitro LOOH formation in membrane vesicles reconstituted as binary mixtures of cholesterol and dilinoleoyl phosphatidylcholine. Vesicles were prepared at a cholesterol-to-phospholipid mole ratio of 0.6:1 and subjected to autoxidation (e.g., lipid oxidation) at 37° C. Lipid oxidation was stimulated with 0.1 μM copper sulfate for 48 hours. All FAs were delivered at 5 and 10 μM."}}}
{"smiles": "CC/C=C\\C/C=C\\C/C=C\\C/C=C\\C/C=C\\CCCC(=O)O", "note": "[EPA, cis-5,8,11,14,17-eicosapentaenoic acid]", "values": [{"measurement": "% change Vs control (cholesterol domain peak intensity)", "setting": "[1]; D/P mole ratio 1:30", "result": "−65.5 ± 17.1", "unit": "%"}, {"measurement": "Relative Cholesterol Domain Peak Intensity", "setting": "[1]; D/P mole ratio 1:30", "result": "14.6±5"}, {"measurement": "reduction in cholesterol domain peaks compared to vehicle", "setting": "[1]; D/P mole ratio 1:30", "result": 65, "unit": "%"}, {"measurement": "% change (vs. Control)", "setting": "[1]; D/P mole ratio 1:60", "result": "−30.2 ± 27.9", "unit": "%"}, {"measurement": "Relative Cholesterol Domain Peak Intensity", "setting": "[1]; D/P mole ratio 1:60", "result": "29.5 ± 10.9"}, {"measurement": "% change (vs. Control)", "setting": "[1]; D/P mole ratio 1:90", "result": "−15.0 ± 12.6", "unit": "%"}, {"measurement": "Relative Cholesterol Domain Peak Intensity", "setting": "[1]; D/P mole ratio 1:90", "result": "36.0 ± 3.1"}, {"measurement": "reduction of sdLDL oxidation compared to vehicle", "setting": "[2]", "result": "> 90", "unit": "%"}, {"measurement": "activity of EPA greater than ALA by", "setting": "[3]", "result": 213, "unit": "%"}, {"measurement": "activity of EPA greater than DHA by", "setting": "[3]", "result": 279, "unit": "%"}, {"measurement": "activity of EPA greater than DPA by", "setting": "[3]", "result": 121, "unit": "%"}, {"measurement": "activity of EPA greater than ETE by", "setting": "[3]", "result": 174, "unit": "%"}, {"measurement": "reduction of LOOH levels compared to the vehicle", "setting": "[3]; 0.1 μM copper sulfate, 48 hours", "result": 77, "unit": "%"}]}
